Like-named read-outs stand apart in the source and are kept apart here.
Key:
human recombinant GR = target: T1, human recombinant GR (Homo sapiens, UniProt P04150); assay: Human glucocorticoid receptor (GR) fluorescence polarisation (FP) binding assay
T1 construct: purchased PanVera P2812
T1 sequence (P04150 1-777): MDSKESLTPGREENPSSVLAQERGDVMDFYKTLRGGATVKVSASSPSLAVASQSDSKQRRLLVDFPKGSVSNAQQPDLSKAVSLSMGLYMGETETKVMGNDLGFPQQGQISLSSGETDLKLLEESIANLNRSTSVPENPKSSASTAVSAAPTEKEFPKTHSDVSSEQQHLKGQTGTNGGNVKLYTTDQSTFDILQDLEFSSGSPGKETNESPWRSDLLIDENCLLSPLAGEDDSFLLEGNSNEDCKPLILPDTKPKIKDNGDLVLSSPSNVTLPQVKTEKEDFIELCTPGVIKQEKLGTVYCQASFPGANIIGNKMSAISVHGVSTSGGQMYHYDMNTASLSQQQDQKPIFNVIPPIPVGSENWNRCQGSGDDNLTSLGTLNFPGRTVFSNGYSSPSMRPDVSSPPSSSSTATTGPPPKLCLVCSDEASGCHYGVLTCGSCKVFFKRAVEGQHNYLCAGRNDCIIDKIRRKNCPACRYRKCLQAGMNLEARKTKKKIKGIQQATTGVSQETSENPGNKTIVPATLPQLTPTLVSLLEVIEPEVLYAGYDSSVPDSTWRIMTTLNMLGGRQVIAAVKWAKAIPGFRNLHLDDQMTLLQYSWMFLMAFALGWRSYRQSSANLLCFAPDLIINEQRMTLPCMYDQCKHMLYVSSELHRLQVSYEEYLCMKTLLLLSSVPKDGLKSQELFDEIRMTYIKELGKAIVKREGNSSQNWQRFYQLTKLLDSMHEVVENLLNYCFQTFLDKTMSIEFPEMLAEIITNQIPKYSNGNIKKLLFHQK
In short: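 Competition fluorescence polarisation: 0.5 nM GS Red labelled glucocorticoid and 1 nM recombinant human GR with 8-point half-log compound series, 1% DMSO, 4 h room temperature, potassium phosphate pH 7.4 buffer with molybdate, EDTA, DTT. Affinity derived from the drop in polarisation, normalised to blank wells.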

[1] = system: induction of TAT by dexamethasone in HepG2 cells; assay: HepG2 tyrosine aminotransferase (TAT) assay; format: cell-based, human
[2] = human recombinant GR, fluorescence polarisation binding assay, read-out: GR binding
[3] = HepG2 cells, challenge of 100 nM dexamethasone, Ki from IC50 by Cheng and Prusoff equation

Structure (SMILES)	Ki (human recombinant GR; [2]) [nM]	Ki [1, 3] [nM]	Ki (human recombinant GR) [nM]	Ki [1] [nM]
COc1ccc(C(=O)[C@]23Cc4cnn(-c5ccc(F)cc5)c4C=C2CCN(S(=O)(=O)c2ccc(C(F)(F)F)cc2)C3)nc1 [Example 5H, (R)-(1-(4-fluorophenyl)-6-((4-(trifluoromethyl)phenyl)sulfonyl)-4,4a,5,6,7,8-hexahydro-1H-pyrazolo[3,4-g]isoquinolin-4a-yl)(5-methoxypyridin-2-yl)methanone]	0.5 to 1	< 20	–	–
Cc1cccc(S(=O)(=O)N2CCC3=Cc4c(cnn4-c4ccc(F)cc4)C[C@]3(C(=O)c3ncccn3)C2)c1 [Example 1J, (R)-(1-(4-fluorophenyl)-6-(m-tolylsulfonyl)-4,4a,5,6,7,8-hexahydro-1H-pyrazolo [3,4-g]isoquinolin-4a-yl)(pyrimidin-2-yl)methanone]	< 0.5	20 to 100	–	–
COCc1cccc(S(=O)(=O)N2CCC3=Cc4c(cnn4-c4ccc(F)cc4)C[C@]3(C(=O)c3ccccn3)C2)c1 [Example 11AA, (R)-(1-(4-fluorophenyl)-6-((3-(methoxymethyl)phenyl)sulfonyl)-4,4a,5,6,7,8-hexahydro-1H-pyrazolo[3,4-g]isoquinolin-4a-yl)(pyridin-2-yl)methanone]	< 0.5	20 to 100	–	–
O=C(c1ccccn1)[C@]12Cc3cnn(-c4ccc(F)cc4)c3C=C1CCN(S(=O)(=O)c1ccc(C(F)(F)F)c(F)c1)C2 [Example 11AT, (R)-(6-((3-fluoro-4-(trifluoromethyl)phenyl)sulfonyl)-1-(4-fluorophenyl)-4,4a,5,6,7,8-hexahydro-1H-pyrazolo[3,4-g]isoquinolin-4a-yl)(pyridin-2-yl)methanone]	–	–	< 0.5	< 20
Cc1ccnc(C(=O)[C@]23Cc4cnn(-c5ccc(F)cc5)c4C=C2CCN(S(=O)(=O)c2ccc(C(F)(F)F)c(F)c2)C3)c1 [Example 11AS, (R)-(6-((3-fluoro-4-(trifluoromethyl)phenyl)sulfonyl)-1-(4-fluorophenyl)-4,4a,5,6,7,8-hexahydro-1H-pyrazolo[3,4-g]isoquinolin-4a-yl)(4-methylpyridin-2-yl)methanone]	< 0.5	< 20	–	–
O=C(c1ccccn1)[C@]12Cc3cnn(-c4ccc(F)cc4)c3C=C1CCN(S(=O)(=O)c1cccc(F)c1)C2 [Example 5G, (R)-(1-(4-fluorophenyl)-6-((3-fluorophenyl)sulfonyl)-4,4a,5,6,7,8-hexahydro-1H-pyrazolo[3,4-g]isoquinolin-4a-yl)(pyridin-2-yl)methanone]	< 0.5	< 20	–	–
CC(C)n1cc(S(=O)(=O)N2CCC3=Cc4c(cnn4-c4ccc(F)cc4)C[C@]3(C(=O)c3ccccn3)C2)nn1 [Example 11CV, (R)-(1-(4-fluorophenyl)-6-((1-isopropyl-1H-1,2,3-triazol-4-yl)sulfonyl)-4,4a,5,6,7,8-hexahydro-1H-pyrazolo[3,4-g]isoquinolin-4a-yl)(pyridin-2-yl)methanone]	< 0.5	20 to 100	–	–
O=C(c1nccs1)[C@]12Cc3cnn(-c4ccc(F)cc4)c3C=C1CCN(S(=O)(=O)c1ccc(C(F)(F)F)c(F)c1)C2 [Example 12K, (R)-(6-((3-fluoro-4-(trifluoromethyl)phenyl)sulfonyl)-1-(4-fluorophenyl)-4,4a,5,6,7,8-hexahydro-1H-pyrazolo[3,4-g]isoquinolin-4a-yl)(thiazol-2-yl)methanone]	< 0.5	20 to 100	–	–
O=C(c1ccccn1)[C@]12Cc3cnn(-c4ccc(F)cc4)c3C=C1CCN(S(=O)(=O)c1cc(F)cc(F)c1)C2 [Example 11J, (R)-(6-((3,5-difluorophenyl)sulfonyl)-1-(4-fluorophenyl)-4,4a,5,6,7,8-hexahydro-1H-pyrazolo[3,4-g]isoquinolin-4a-yl)(pyridin-2-yl)methanone]	< 0.5	< 20	–	–
O=C(c1ccccn1)[C@]12Cc3cnn(-c4ccc(F)cc4)c3C=C1CCN(S(=O)(=O)c1cccc(OC(F)F)c1)C2 [Example 11L, (R)-(6-((3-(difluoromethoxy)phenyl)sulfonyl)-1-(4-fluorophenyl)-4,4a,5,6,7,8-hexahydro-1H-pyrazolo[3,4-g]isoquinolin-4a-yl)(pyridin-2-yl)methanone]	< 0.5	< 20	–	–
Cc1ccc(S(=O)(=O)N2CCC3=Cc4c(cnn4-c4ccc(F)cc4)C[C@]3(C(=O)c3ccccn3)C2)cc1Cl [Example 11BG, (R)-(6-((3-chloro-4-methylphenyl)sulfonyl)-1-(4-fluorophenyl)-4,4a,5,6,7,8-hexahydro-1H-pyrazolo[3,4-g]isoquinolin-4a-yl)(pyridin-2-yl)methanone]	< 0.5	< 20	–	–
Cn1cc(S(=O)(=O)N2CCC3=Cc4c(cnn4-c4ccc(F)cc4)C[C@]3(C(=O)c3cc(C(F)(F)F)ccn3)C2)nn1 [Example 11CG, (R)-(1-(4-fluorophenyl)-6-((1-methyl-1H-1,2,3-triazol-4-yl)sulfonyl)-4,4a,5,6,7,8-hexahydro-1H-pyrazolo[3,4-g]isoquinolin-4a-yl)(4-(trifluoromethyl)pyridin-2-yl)methanone]	< 0.5	< 20	–	–
O=C(c1ccnc(N2CCCC2)c1)[C@]12Cc3cnn(-c4ccc(F)cc4)c3C=C1CCN(S(=O)(=O)c1ccc(F)c(F)c1)C2 [Example 11BH, (R)-(6-((3,4-difluorophenyl)sulfonyl)-1-(4-fluorophenyl)-4,4a,5,6,7,8-hexahydro-1H-pyrazolo[3,4-g]isoquinolin-4a-yl)(2-(pyrrolidin-1-yl)pyridin-4-yl)methanone]	> 1	≥ 100	–	–
Cc1ccc(S(=O)(=O)N2CCC3=Cc4c(cnn4-c4ccc(F)cc4)C[C@]3(C(=O)c3nccn3C)C2)cc1 [Example 13, (R)-(1-(4-fluorophenyl)-6-tosyl-4,4a,5,6,7,8-hexahydro-1H-pyrazolo [3,4-g]isoquinolin-4a-yl)(1-methyl-1H-imidazol-2-yl)methanone]	0.5 to 1	20 to 100	–	–
Cn1ccc(S(=O)(=O)N2CCC3=Cc4c(cnn4-c4ccc(F)cc4)C[C@]3(C(=O)c3cc(C(F)(F)F)ccn3)C2)n1 [Example 11BI, (R)-(1-(4-fluorophenyl)-6-((1-methyl-1H-pyrazol-3-yl)sulfonyl)-4,4a,5,6,7,8-hexahydro-1H-pyrazolo[3,4-g]isoquinolin-4a-yl)(4-(trifluoromethyl)pyridin-2-yl)methanone]	< 0.5	< 20	–	–
Cc1ccnc(C(=O)[C@]23Cc4cnn(-c5ccc(F)cc5)c4C=C2CCN(S(=O)(=O)c2c(C)noc2C)C3)c1 [Example 11AX, (R)-(6-((3,5-dimethylisoxazol-4-yl)sulfonyl)-1-(4-fluorophenyl)-4,4a,5,6,7,8-hexahydro-1H-pyrazolo[3,4-g]isoquinolin-4a-yl)(4-methylpyridin-2-yl)methanone]	< 0.5	20 to 100	–	–
O=C(c1cc(C(F)(F)F)ccn1)[C@]12Cc3cnn(-c4ccc(F)cc4)c3C=C1CCN(S(=O)(=O)c1cc(F)c(F)c(F)c1)C2 [Example 11BQ, (R)-(1-(4-fluorophenyl)-6-((3,4,5-trifluorophenyl)sulfonyl)-4,4a,5,6,7,8-hexahydro-1H-pyrazolo[3,4-g]isoquinolin-4a-yl)(4-(trifluoromethyl)pyridin-2-yl)methanone]	> 1	< 20	–	–
CCCn1nncc1S(=O)(=O)N1CCC2=Cc3c(cnn3-c3ccc(F)cc3)C[C@]2(C(=O)c2ccccn2)C1 [Example 11CO, (R)-(1-(4-fluorophenyl)-6-((1-propyl-1H-1,2,3-triazol-5-yl)sulfonyl)-4,4a,5,6,7,8-hexahydro-1H-pyrazolo[3,4-g]isoquinolin-4a-yl)(pyridin-2-yl)methanone]	> 1	20 to 100	–	–
O=C(c1ccccn1)[C@]12Cc3cnn(-c4ccc(F)cc4)c3C=C1CCN(S(=O)(=O)c1cccc(OC(F)(F)F)c1)C2 [Example 11I, (R)-(1-(4-fluorophenyl)-6-((3-(trifluoromethoxy)phenyl)sulfonyl)-4,4a,5,6,7,8-hexahydro-1H-pyrazolo[3,4-g]isoquinolin-4a-yl)(pyridin-2-yl)methanone]	< 0.5	< 20	–	–
O=C(c1ccccn1)[C@]12Cc3cnn(-c4ccc(F)cc4)c3C=C1CCN(S(=O)(=O)c1ccc(Cl)cc1)C2 [Example 11A, (R)-(6-((4-chlorophenyl)sulfonyl)-1-(4-fluorophenyl)-4,4a,5,6,7,8-hexahydro-1H-pyrazolo[3,4-g]isoquinolin-4a-yl)(pyridin-2-yl)methanone]	< 0.5	< 20	–	–
CCn1cc(S(=O)(=O)N2CCC3=Cc4c(cnn4-c4ccc(F)cc4)C[C@]3(C(=O)c3cc(C(F)(F)F)ccn3)C2)nn1 [Example 11CM, (R)-(6-((1-ethyl-1H-1,2,3-triazol-4-yl)sulfonyl)-1-(4-fluorophenyl)-4,4a,5,6,7,8-hexahydro-1H-pyrazolo[3,4-g]isoquinolin-4a-yl)(4-(trifluoromethyl)pyridin-2-yl)methanone]	< 0.5	< 20	–	–

Reference: patent US12226412B2, “Heteroaryl-ketone fused azadecalin glucocorticoid receptor modulators” (Corcept Therapeutics, Inc., priority 2012, dated 2025)
